Each compound was assayed on IL-1β release from THP-1 cells (assay: IL-1β Release Assay (Alternate Method), THP-1 cells). Details: Homo sapiens; at 0.3 μM; THP-1 cells; read-out: IL-1β % inhibition.
Assay type: cell-based, human
Method: THP-1 cells (ATCC Cat #285-IF-100) are plated in 96 well plates at a concentration of 200,000 cells per well and allowed to differentiate in RPMI-1640 media (ATCC Cat #30-2001) containing 10% FBS, 100 IU/mL penicillin, 100 ug/mL streptomycin, 100 ng/mL LPS and 100 ng/mL IFN-γ for 16 hours. Following differentiation, the cells are treated for an additional 2 hours in RPMI-1640 media containing 100 IU/mL penicillin, 100 ug/mL streptomycin and fresh LPS at 100 ng/mL. The cells are then pretreated for 30 minutes with the compound of interest at the appropriate concentration in RPMI media containing 100 IU/mL penicillin, 100 ug/mL streptomycin. Following the pretreatment 2′, 3′-O-(4-benzoylbenzoyl)-adenosine 5′-triphosphate (Sigma Aldrich Cat#B6396) is added to a final concentration of 250 uM and the cells incubated for an additional 45 minutes. 30 uL of cell supernatant is then collected and IL-1β levels determined via ELISA (R&D systems Cat. #HSLB50) according to manufacturer's recommendations using the Tecan Safire plate reader. Background adjusted IL-1β levels of drug treated and non-treated cells are used to calculate the percent inhibition.

Compound	inhibition at 0.3 µM
O=C(CC12CC3CC(CC(C3)C1)C2)Nc1ccnc2c1CCN(Cc1ccccc1)C2 [Compound 342, 2-Adamantan-1-yl-N-(7-benzyl-5,6,7,8-tetrahydro-[1,7]naphthyridin-4-yl)-acetamide]	0 to 25%
Cc1ncc2c(c1C(=O)NCC13CC4CC(CC(C4)C1)C3)CCN(Cc1ccccc1)C2 [Compound 368, 7-Benzyl-3-methyl-5,6,7,8-tetrahydro-[2,7]naphthyridine-4carboxylic acid (adamantan-1-ylmethyl)-amide]	0 to 25%

Same assay, conditions: at 0.3 μM; THP-1 cells

Compound	IL-1β % inhibition
CC(C)(C)CC(=O)N1CCc2c(ncnc2NC(=O)CC23CC4CC(C)(CC(C)(C4)C2)C3)C1 [Compound 388]	+ (compound exhibited 0-25% inhibition at 0.3 μM)
O=C(CC12CC3CC(CC(C3)C1)C2)Nc1ncnc2c1CCN(Cc1ccc3c(c1)OCCCO3)C2 [Compound 333]	+++ (compound exhibited 50-75% inhibition at 0.3 μM)
O=C(CC12CC3CC(CC(C3)C1)C2)Nc1ncnc2c1CCN(S(=O)(=O)c1ccc(Oc3ccc(C(F)(F)F)cc3)cc1)C2 [Compound 177]	++ (compound exhibited 25-50% inhibition at 0.3 μM)
Cc1ccccc1C(=O)N1CCc2c(ncnc2NC(=O)CC23CC4CC(CC(C4)C2)C3)C1 [Compound 278]	+++ (compound exhibited 50-75% inhibition at 0.3 μM)
CC(c1ccc2c(c1)OCCO2)N1CCc2c(ncnc2NC(=O)CC23CC4CC(CC(C4)C2)C3)C1 (stereo not shown) [Compound 317]	+ (compound exhibited 0-25% inhibition at 0.3 μM)
O=C(CC12CC3CC(CC(C3)C1)C2)Nc1ncnc2c1CCN(CC1CCCCC1)C2 [Compound 122]	+ (compound exhibited 0-25% inhibition at 0.3 μM)
CCCS(=O)(=O)N1CCc2c(ncnc2NC(=O)CC23CC4CC(CC(C4)C2)C3)C1 [Compound 147]	++++ (compound exhibited 75% or greater inhibition at 0.3 μM)
O=C(CC12CC3CC(CC(C3)C1)C2)Nc1ncnc2c1CCN(Cc1ccccc1OCCO)C2 [Compound 100]	++ (compound exhibited 25-50% inhibition at 0.3 μM)
O=C(CC12CC3CC(CC(C3)C1)C2)Nc1ncnc2c1CCN(C(=O)c1ccc(F)cc1)C2 [Compound 251]	+ (compound exhibited 0-25% inhibition at 0.3 μM)
CC(CC(=O)N1CCc2c(ncnc2NC(=O)CC23CC4CC(CC(C4)C2)C3)C1)CC(C)(C)C (stereo not shown) [Compound 235]	++++ (compound exhibited 75% or greater inhibition at 0.3 μM)
Cc1cccc(CN2CCc3c(ncnc3NC(=O)CC34CC5CC(CC(C5)C3)C4)C2)c1 [Compound 38]	+ (compound exhibited 0-25% inhibition at 0.3 μM)
Cc1cc(S(=O)(=O)N2CCc3c(ncnc3NC(=O)CC34CC5CC(CC(C5)C3)C4)C2)c(C(F)(F)F)o1 [Compound 159]	+ (compound exhibited 0-25% inhibition at 0.3 μM)
N#Cc1cc(CN2CCc3c(ncnc3NC(=O)CC34CC5CC(CC(C5)C3)C4)C2)ccc1F [Compound 84]	+ (compound exhibited 0-25% inhibition at 0.3 μM)
CN1CCc2c(ncnc2NC(=O)CC23CC4CC(CC(C4)C2)C3)C1 [Compound 7]	+ (compound exhibited 0-25% inhibition at 0.3 μM)
O=C(CC12CC3CC(CC(C3)C1)C2)Nc1ncnc2c1CCN(Cc1cccc(Oc3ccccc3)c1)C2 [Compound 68]	+ (compound exhibited 0-25% inhibition at 0.3 μM)
Cc1nc(S(=O)(=O)N2CCc3c(ncnc3NC(=O)CC34CC5CC(CC(C5)C3)C4)C2)cn1C [Compound 164]	+ (compound exhibited 0-25% inhibition at 0.3 μM)
O=C(CC1CCCCCC1)Nc1ncnc2c1CCN(CCc1ccccc1)C2 [Compound 129]	+ (compound exhibited 0-25% inhibition at 0.3 μM)
N#Cc1ccc(CN2CCc3c(ncnc3NC(=O)CC34CC5CC(CC(C5)C3)C4)C2)cc1 [Compound 42]	+ (compound exhibited 0-25% inhibition at 0.3 μM)

Compound	IL-1β % inhibition
COc1ccc(CN2CCc3c(ncnc3NC(=O)CC34CC5CC(CC(C5)C3)C4)C2)cc1F [Compound 119]	++ (compound exhibited 25-50% inhibition at 0.3 μM)
O=C(NCC1CCCCC1)c1ncnc2c1CCN(Cc1ccncc1)C2 [Compound 49]	+ (compound exhibited 0-25% inhibition at 0.3 μM)
Cc1cccc(C(=O)N2CCc3c(ncnc3NC(=O)CC34CC5CC(CC(C5)C3)C4)C2)c1 [Compound 230]	++++ (compound exhibited 75% or greater inhibition at 0.3 μM)
COc1cc(OCc2ccccc2)ccc1CN1CCc2c(ncnc2NC(=O)CC23CC4CC(CC(C4)C2)C3)C1 [Compound 330]	+++ (compound exhibited 50-75% inhibition at 0.3 μM)
O=C(CC12CC3CC(CC(C3)C1)C2)Nc1ncnc2c1CCN(CCc1ccccc1)C2 [Compound 14]	+ (compound exhibited 0-25% inhibition at 0.3 μM)
COc1ccc(S(=O)(=O)N2CCc3c(ncnc3NC(=O)CC34CC5CC(CC(C5)C3)C4)C2)cc1 [Compound 149]	+++ (compound exhibited 50-75% inhibition at 0.3 μM)
O=C(CC12CC3CC(CC(C3)C1)C2)Nc1ncnc2c1CCN(C(=O)c1cccc(Cl)c1)C2 [Compound 253]	+++ (compound exhibited 50-75% inhibition at 0.3 μM)
O=C(NCC12CC3CC(CC(C3)C1)C2)c1ncnc2c1CCN(Cc1cccc(F)c1)C2 [Compound 316]	+ (compound exhibited 0-25% inhibition at 0.3 μM)
O=C(CC12CC3CC(CC(C3)C1)C2)Nc1ncnc2c1CCN(Cc1ccccc1OC(F)F)C2 [Compound 77]	+ (compound exhibited 0-25% inhibition at 0.3 μM)
Cc1ccc(CN2CCc3c(ncnc3NC(=O)CC34CC5CC(CC(C5)C3)C4)C2)c2ccccc12 [Compound 112]	+ (compound exhibited 0-25% inhibition at 0.3 μM)
O=C(CC12CC3CC(CC(C3)C1)C2)Nc1ncnc2c1CCN(Cc1ccc(F)c(F)c1)C2 [Compound 322]	+ (compound exhibited 0-25% inhibition at 0.3 μM)
O=C(CC12CC3CC(CC(C3)C1)C2)Nc1ncnc2c1CCN(S(=O)(=O)c1c(Cl)cccc1Cl)C2 [Compound 210]	+ (compound exhibited 0-25% inhibition at 0.3 μM)
Cc1cc(C(=O)N2CCc3c(ncnc3NC(=O)CC34CC5CC(CC(C5)C3)C4)C2)nn1C [Compound 284]	++ (compound exhibited 25-50% inhibition at 0.3 μM)
O=C(CC12CC3CC(CC(C3)C1)C2)Nc1ncnc2c1CCN(Cc1ccccc1F)C2 [Compound 28]	++++ (compound exhibited 75% or greater inhibition at 0.3 μM)
CCc1ccc(C(=O)N2CCc3c(ncnc3NC(=O)C34CC5CC(CC(C5)C3)C4)C2)cc1 [Compound 402]	+ (compound exhibited 0-25% inhibition at 0.3 μM)
O=C(CC12CC3CC(CC(C3)C1)C2)Nc1ncnc2c1CCN(S(=O)(=O)c1cccc(C(F)(F)F)c1)C2 [Compound 154]	++++ (compound exhibited 75% or greater inhibition at 0.3 μM)
O=C(CC12CC3CC(CC(C3)C1)C2)Nc1ncnc2c1CCN(S(=O)(=O)c1ccc(F)cc1F)C2 [Compound 209]	++++ (compound exhibited 75% or greater inhibition at 0.3 μM)

Same assay, conditions: at 0.3 μM; THP-1 cells, BzATP-stimulated

Compound	IL-1β % inhibition
COc1cc(CN2CCc3c(ncnc3NC(=O)C34CC5CC(CC(C5)C3)C4)C2)ccc1F [Compound 629]	+ (compound exhibited 0-25% inhibition at 0.3 μM)
O=C(Nc1ncnc2c1CCN(Cc1cccc(Oc3cccc(C(F)(F)F)c3)c1)C2)C12CC3CC(CC(C3)C1)C2 [Compound 626]	++ (compound exhibited 25-50% inhibition at 0.3 μM)
O=C(Nc1ncnc2c1CCN(S(=O)(=O)Cc1cc(C(F)(F)F)cc(C(F)(F)F)c1)C2)C12CC3CC(CC(C3)C1)C2 [Compound 515]	+++ (compound exhibited 50-75% inhibition at 0.3 μM)
COc1ccc(CN2CCc3c(ncnc3NC(=O)C34CC5CC(CC(C5)C3)C4)C2)cc1 [Compound 562]	+ (compound exhibited 0-25% inhibition at 0.3 μM)
CC(C)(C)c1ccc(CN2CCc3c(ncnc3NC(=O)C34CC5CC(CC(C5)C3)C4)C2)cc1 [Compound 572]	++++ (compound exhibited 75% or greater inhibition at 0.3 μM)
Cc1cc(C)cc(S(=O)(=O)N2CCc3c(ncnc3NC(=O)C34CC5CC(CC(C5)C3)C4)C2)c1 [Compound 550]	+ (compound exhibited 0-25% inhibition at 0.3 μM)
COc1cccc(S(=O)(=O)N2CCc3c(ncnc3NC(=O)C34CC5CC(CC(C5)C3)C4)C2)c1 [Compound 498]	+ (compound exhibited 0-25% inhibition at 0.3 μM)
O=C(Nc1ncnc2c1CCN(Cc1ccc(OCc3ccc(F)cc3)cc1)C2)C12CC3CC(CC(C3)C1)C2 [Compound 622]	++ (compound exhibited 25-50% inhibition at 0.3 μM)
O=C(Nc1ncnc2c1CCN(S(=O)(=O)Cc1ccccc1)C2)C12CC3CC(CC(C3)C1)C2 [Compound 491]	+ (compound exhibited 0-25% inhibition at 0.3 μM)
CN1CCOc2cc(S(=O)(=O)N3CCc4c(ncnc4NC(=O)C45CC6CC(CC(C6)C4)C5)C3)ccc21 [Compound 494]	+++ (compound exhibited 50-75% inhibition at 0.3 μM)
O=C(c1ccc(Cl)c(Cl)c1)N1CCc2c(ncnc2NC(=O)C23CC4CC(CC(C4)C2)C3)C1 [Compound 417]	+ (compound exhibited 0-25% inhibition at 0.3 μM)
O=C(Nc1ncnc2c1CCN(CC(c1ccccc1)c1ccccc1)C2)C12CC3CC(CC(C3)C1)C2 [Compound 553]	++ (compound exhibited 25-50% inhibition at 0.3 μM)

— patent US7297700B2, “Bicycloheteroaryl compounds as P2X7 modulators and uses thereof” (Renovis, Inc., priority 2005, dated 2007)
